From US11964951B2, “Process of making derivatives of substituted morpholines” (Supernus Pharmaceuticals, Inc., priority 2022, dated 2024)

Key:
[1] = chemical stability on standing / by HPLC during work-up; format: physicochemical; settings: kept at room temperature overnight
Protocol: The process was repeated. The mother liquor materials were combined. A 15-g portion of the mother liquor material (a syrupy liquid) was subjected to a water-acid-base extraction by dissolving the mother liquor in 50 mL of ethyl acetate and washing with water then with 1N HCl (2×). The ethyl acetate layer contained 2-((2-ethoxyphenoxy)methyl)morpholine, unreacted BOC compound 5, and a trace of the desired compound. The HCl solution was mainly the desired amine 6 HCl salt plus some 2-((2-ethoxyphenoxy)methyl)morpholine and a minor impurity. This solution was made alkaline with sodium bicarbonate, extracted with dichloromethane (3×) washed with brine, and dried over magnesium sulfate. […] The material was kept at room temperature overnight whereupon it decomposed.
The ethyl acetate solution of the free base was treated with a solution of 150 mg of maleic acid in 2 mL of isopropanol. […] The material was dissolved in dichloromethane, washed with water, and evaporated to give 374 mg of the maleate as an oil.

[2] = relative to the (R)-(+)-isomer; J. Med. Chem. 1976, 19(8), 1074; cited from earlier work

Structure (SMILES)	stability of the isolated material [1]	pharmacological activity as compared to the (R)-(+)-isomer [2]
CCOc1ccccc1OC[C@@H]1CN(C(=O)OC(C)OC(=O)[C@@H](N)C(C)C)CCO1.Cl (mixture of isomers) [Compound 6, 1-[(S)-2-Amino-3-methylbutyroxy]ethyl (S)-2-[(o-ethoxyphenoxy)methyl]-4-morpholinecarboxylate, hydrochloride]	decomposed	
CCOc1ccccc1OC[C@@H]1CNCCO1 [(S)-enantiomer, (S)-2-((2-ethoxyphenoxy)methyl)morpholine]		five times
